Experimental data reported in patent US5668265A, “Bi-directional oligonucleotides that bind thrombin” (Becton Dickinson and Company, priority 1996, dated 1997).
pKd: −log10 of the molar value.

What was measured:
[1] = tested on: human α thrombin; assay: Competitive binding assay on BIAcore (SPR) against immobilized consensus aptamer; conditions: for pKd: 80 nM human α thrombin, 25° C., pH 7.4, competition with immobilized consensus aptamer, read-out: Apparent Kd
Protocol: Competitive binding assays were used to determine the thrombin binding affinity of the various bi-directional oligonucleotides relative to the affinity of the known thrombin aptamer ^5' GGTTGGTGTGGTTGG^3' (SEQ ID NO:4) (hereafter called the "consensus" aptamer; Bock, L. C. et al, Nature 355, 564 (1992)). The assays were performed on a BIAcore™ biosensor instrument (Pharmacia Biosensor, Uppsala Sweden) by means of Surface Plasmon Resonance (SPR) detection of thrombin bound to consensus aptamer immobilized as described in U.S. patent application Ser. No. 0802,383, now abandoned, filed Aug. 5, 1993 incorporated herein by reference. Competition experiments were conducted at 25° C. by pre-incubating 80 nM human α thrombin for 30 minutes with various concentrations of the bi-directional oligonucleotide to be measured, in a buffer composed of 20 mM Tris-Acetate, 140 mM NaCl, 5 mM KCl, 1 mM CaCl2, 1 mM MgCl2 (pH 7.4). This solution was then passed over the surface containing immobilized consensus aptamer at a flow rate of 3 μL per minute for 10 minutes. The steady state response was measured as a function of bi-directional oligonucleotide concentration. The competition data were analyzed assuming that thrombin and the solution phase oligonucleotide bind monovalently and that thrombin molecules bound to a solution phase oligonucleotide are prohibited from binding to the immobilized consensus aptamer.
In this analysis, the steady state response in the presence of oligonucleotide is proportional to the surface concentration of bound thrombin, and apparent equilibrium dissociation constants (Kd 's) were determined from the variation in SPR response as a function of bi-directional oligonucleotide concentration. (Data were fit to eqn 31 of Pisarchick, M. L. and Thompson, N. L., Biophys J. 58, 1235, to yield the Kd values. In this analysis, it was assumed that the concentration nucleic acid ligand free in solution is equal to the total nucleic acid ligand concentration). The values determined are shown below (SEQ ID NO:4): […]

[2] = tested on: 3'-exonuclease (Phosphodiestase I; C. adamanteus Venon); format: in vitro ADME; conditions: 0.005 units exonuclease, 37° C., pH 8.8; for Approximate Half-Life: estimated by visual inspection of autoradiogram
Protocol: It is expected that the 3'--3' linked oligonucleotides will show similar resistance to 3'-exonucleases found in
The various bi-directional nucleic acid ligands to be tested were first labeled with radioactive (^32 p) phosphate as follows:
200 pmol of each oligonucleotide was incubated at 37° C. for 30 minutes in 20 μl of a solution containing 3.0 mM Tricine (pH 7.6), 50 mM TRIS-HCl (pH8), 10 mM MgCl2, 5 mM DTT, 1.0 μM γ-^32 P-ATP (3000 Ci/mmol, 10 mCi/mL), 10 units T4 polynucleotide kinase (New England Biolabs). This labeling reaction was then terminated by heating the mixture at 95° C. for 3 minutes.
To test the resistance of the ^32 P-labeled oligonucleotides to the 3' exonuclease, the following reaction mixtures were assembled: Each bi-directional nucleic acid ligand (25 pmole) was dissolved in 100 μl containing 55 mM Tris-HCl, 55 mM NaCl, 7.5 mM MgCl2 (all at pH8.8). To this mixture 0.005 units of the exonuclease (Phosphodiestase I; C. adamanteus Venon; Pharmacia Biotech, Inc.) was added and the sample was mixed and incubated at 37° C. Five μL aliquots of each reaction were removed at 3, 10, 30, 60, and 100 minutes. The reactions were quenched by placing the aliquots into 25 μL solutions containing 50% (w/v) urea, 20 mM Na2 EDTA, and 0.05% bromophenol blue/zylene cylanol and heating the sample to 90° C. for 2 minutes. The reaction products were analyzed by electrophoretic separation on a denaturing polyacrylamide gel and subsequent autoradiagraphy of the gel.
The half-lives of the various bi-directional nucleic acid ligands under these conditions were estimated by visual inspection of autoradiogram (SEQ ID NO:4): […]

[3] = tested on: bovine thrombin; assay: Clot time assay in platelet-poor porcine plasma with added thrombin; format: biochemical; conditions: room temperature, FIG. 2
Protocol: PPP was prepared by separating cells from […] by centrifugation of whole citrated porcine blood (Environmental Diagnostics Inc.). Approximately 0.5 ml of PPP was added to 12×75 mm polystyrene test tubes (FALCON, Becton Dickinson) and equilibrated to room temperature in a water bath for 15 minutes. Following equilibration, 25 μl of 250 μg/ml bovine thrombin (Sigma) in saline was added along with varying amounts of bi-directional nucleic acid ligand compounds prepared in Example 3 (specifically Compound #5 and Compound #9) in saline and sufficient saline diluent to bring the total volume to 0.6 ml. At this time 50 μl of 0.4M CaCl2 was added to initiate coagulation and the tubes were quickly capped. Tube contents were mixed on a laboratory inverting mixer and time of clotting noted for each tube type.

| Substance | pKd [1] | Approximate Half-Life [2] [min] | also measured |
| --- | --- | --- | --- |
| 5'-GGTTGGT-3' (DNA, backbone not given here) [a single copy of this sequence, reference compound] |  |  | thrombin affinity (in words) ([1]; thrombin): does not have high affinity for thrombin |
| ^3' GGTTGGTT^5' -p-^5' TTGGTTGG^3' [Compound 4] | 7.60 |  |  |
| ^5' GGTTGGTGTGGTTGG^3' [Compound 10, reference compound] | 8.22 | < 3 | time to complete degradation by the 3'-exonuclease [2]: less than 3 minutes |
| ^5' GGTTGGTG^3' -p-^3' TGGTTGG^5' [Compound 1] | 6.65 |  |  |
| ^5' GGTTGGTTG^3' -p-^3' TTGGTTGG^5' [Compound 3] | 7.96 | > 100 |  |
| ^5' GGTTGGTT^3' (DNA, backbone not given here) [Compound 12, single oligonucleotide segment, control, reference compound] | 5.82 |  |  |
| ^5' GGTTGGTT^3' -L1 -^3' TTGGTTGG^5' (DNA, backbone not given here; two strands joined 3'-3' by hexaethylene glycol phosphodiester linker, further chemistry not fully specified) [Compound 6, 3'-3' bi-directional oligonucleotide linked through hexaethylene glycol phosphodiester] | 8.00 |  | inhibition of exogenous thrombin in plasma (clot time) [3]: inhibits thrombin in porcine plasma; thrombin affinity (in words) ([1]; thrombin): high affinity for thrombin |
| ^5' GGTTGGTT^3' -p-^3' TTGGTTGG^5' [Compound 2] | 6.51 |  |  |
| ^5' GGTTGGT^3' -L1 -^3' TGGTTGG^5' (DNA, backbone not given here; two strands joined 3'-3' through linker L1, further chemistry not fully specified) [Compound 5, 3'-3' bi-directional oligonucleotide linked through hexaethylene glycol phosphodiester] | 8.05 | 30 | inhibition of exogenous thrombin in plasma (clot time) [3]: inhibition of exogenous thrombin in plasma; Ka (thrombin binding affinity) ([1]; thrombin): > 10^7 M^-1 |
